Assay results published in PubChem BioAssay AID463204 (Broad Institute, 2010).
Active and inactive are the calls of the source.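 The calls were made as follows: active = AC50 no more than ten times the top concentration tested, that is within one log above it; inconclusive = flat curve fit with activity between 30% and 70%, or invalid poor fit; inactive = AC50 beyond ten times the top tested dose.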

test system: S. cerevisiae Mot1-301 ts growth rescue, BacTiter-Glo ATP luminescence; test: restored Mot1-301 yeast growth at 38.5C – whole organism, S. cerevisiae, Mot1-301 ts mutant, luminescence, dose retest, SUMOylation pathway inhibitor project, confirmation (AID 463204);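 also: growth at restrictive 38.5 degrees C of Mot1-301 OY566 strain; actives raise luminescence by restoring growth of the ts mutant at high temperature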

Row | Compound | AC50
1 | O=C(C[n+]1ccc(C(=O)N/N=C/c2ccc(Cl)cc2Cl)cc1)c1ccccc1 | > 42 µM (inactive)
2 | CC(=O)Nc1ccc(S(=O)(=O)Nc2ccc3c(c2)C(=O)OC3)cc1 | > 42 µM (inactive)
3 | COc1cccc(NC(=O)c2nn(C34CC5CC(CC(C5)C3)C4)cc2[N+](=O)[O-])c1 | > 42 µM (inactive)
4 | NC(=O)NC(=O)CSc1nc(C2CCCCC2)n(-c2ccccc2)n1 | > 42 µM (inactive)
5 | CC(c1ccccn1)N(CCN(C)C)C(=S)Nc1cccc(F)c1 (stereo not given) | > 42 µM (inactive)
6 | CN1C(=O)c2ccc(NC(=S)NC(=O)C(C)(C)C)cc2C1=O | > 42 µM (inactive)
7 | O=C(N/N=C/C(Br)=C/c1ccccc1)c1cccnc1 | 21.5 µM
8 | Cc1cc(C)n(C(=O)CNC(=O)c2ccc3c(c2)OCCO3)n1 | > 42 µM (inactive)
9 | O=C(NC1CCCC1)C(c1cccs1)N(C(=O)c1ccno1)c1ccccc1 (stereo not given) | > 42 µM (inactive)
10 | COc1ccc(N2CCN(C3CCCN(Cc4cccc(OC)c4)C3)CC2)cc1 (stereo not given) | > 42 µM (inactive)
11 | CCC(c1nc2ccccc2c(=O)n1-c1nc2ccccc2s1)N1C(=O)c2ccccc2C1=O (stereo not given) | > 42 µM (inactive)
12 | Cn1c(=O)c2c(nc(N/N=C/c3ccc(OC(=O)c4ccco4)cc3)n2Cc2ccccc2Cl)n(C)c1=O | > 42 µM (inactive)
13 | CCOC(=O)Cn1c(=O)n(Cc2ccco2)c(=O)c2ccc(C(=O)NCCc3ccccc3)cc21 | > 42 µM (inactive)
14 | CC(C)n1c(O)c(N=Nc2ccccn2)c2ccccc21 | > 42 µM (inactive)
15 | Oc1c(Br)cc(Br)cc1/C=N/n1c(-c2ccccc2)n[nH]c1=S | 26.2 µM
16 | CN1C(=O)/C(=C/c2ccc(OCc3ccccc3F)cc2)NC1=S | > 42 µM (inactive)
17 | O=C(Nc1ccc2[nH]c(=O)[nH]c2c1)c1c(F)c(F)c(F)c(F)c1F | > 42 µM (inactive)
18 | CC1Cc2ccccc2N1C(=O)CNc1cccc(S(=O)(=O)N2CCCC2)c1 (stereo not given) | > 42 µM (inactive)
19 | CCOC(=O)N1CCN(C(=O)CNC(=O)c2nn(-c3ccc(OC)c(OC)c3)c(=O)c3ccccc23)CC1 | > 42 µM (inactive)
20 | COc1ccccc1N1CCN(C(=O)C(=O)N/N=C/c2ccccc2F)CC1 | > 42 µM (inactive)
21 | COc1cc([C@@H]2CC=C(C(=O)O)[C@H](c3ccccc3F)N2S(=O)(=O)c2ccc(C)cc2)cc(OC)c1OC | > 42 µM (inactive)
22 | CCCCC1=CC2=CC(=O)C(C)(OC(=O)CC)C(=O)C2=CN1CCCOC(C)C (stereo not given) | > 42 µM (inactive)
23 | CCCCn1c(/C=N/Nc2nc3ccccc3[nH]2)nc2ccccc21 | 3.98 µM
24 | O=C(CC(c1ccccc1)c1ccccc1O)NCCN1CCOCC1 (stereo not given) | > 42 µM (inactive)

Row | Compound | AC50
25 | CCOc1ccc(OCC)c(NC(=O)C2COc3ccccc3O2)c1 (stereo not given) | > 42 µM (inactive)
26 | CCCCc1ccc(S(=O)(=O)NNC(=S)NCc2ccco2)cc1 | > 42 µM (inactive)
27 | Cc1ccccc1C(=O)NNC(=O)/C=C\C(=O)O | > 42 µM (inactive)
28 | CCOC(=O)C1=C(C)NC(C)=C(C(=O)OCC)C1C(=O)OC1CCOC1=O (stereo not given) | > 42 µM (inactive)
29 | O=C(N=C1SC2CS(=O)(=O)CC2N1c1ccc(F)c(Cl)c1)C1CC1 (stereo not given) | > 42 µM (inactive)
30 | C/C=C(/C)C(=O)OC1c2c(ccc3ccc(=O)oc23)OC(C)(C)C1OC(=O)/C(C)=C\C (stereo not given) | > 42 µM (inactive)
31 | Cc1cc(C)cc(C(=O)NC(CC(N)=O)c2ccc(N3CCC(N4CCCCC4)CC3)c([N+](=O)[O-])c2)c1 (stereo not given) | > 42 µM (inactive)
32 | COCCNCc1ccccc1 | > 42 µM (inactive)
33 | Cc1cc(C)c2cc(C)c3nnc(SCC(=O)NCc4ccc5c(c4)OCO5)n3c2c1 | > 42 µM (inactive)
34 | O=C(CSc1nnc(-c2cccs2)n1-c1ccccc1)c1ccc2c(c1)OCCO2 | > 42 µM (inactive)
35 | CSc1ccccc1-n1nnnc1SCC(=O)Nc1ccccc1C | > 42 µM (inactive)
36 | COc1cc(C(=O)COC(=O)c2cc([N+](=O)[O-])ccc2N2CCOCC2)ccc1OC(F)F | 29.4 µM
37 | c1ccc(N2CCN(C3CCSC3)CC2)cc1 (stereo not given) | > 42 µM (inactive)
38 | CCC(C)NCCCCOc1cc(C)cc(C(C)C)c1 (stereo not given) | > 42 µM (inactive)
39 | CCOC(=O)CNC(=O)c1cccnc1 | > 42 µM (inactive)
40 | CC(=O)Nc1ccc(S(=O)(=O)Nc2cccc(-c3ccc4nncn4n3)c2)cc1 | > 42 µM (inactive)
41 | COC(=O)c1c(C)cc(O)c(C=O)c1O | 17.7 µM
42 | COc1ccc(-c2oc3ccc(-c4cc(OC)c(OC)c(OC)c4)cc3c2C(=O)c2ccc(OC)nc2)cc1 | > 42 µM (inactive)
43 | O=C(c1ccncc1)N(Cc1ccccc1)Cc1nc2ccccc2c(=O)[nH]1 | > 42 µM (inactive)
44 | CCc1nnc(NC(=O)CSc2ccc(-c3ccc(-n4cccn4)cc3)nn2)s1 | > 42 µM (inactive)
45 | COc1cccc(NC(=O)CN(C)C(=O)c2ccccc2OCc2c(C)noc2C)c1 | > 42 µM (inactive)
46 | CCC(C)NCCOc1ccccc1C (stereo not given) | > 42 µM (inactive)
47 | O=C(O)c1ccc(CNC(=O)c2ccccc2NC(=O)c2ccc([N+](=O)[O-])cc2)cc1 | > 42 µM (inactive)
48 | COc1cccc(N=Nc2c(=O)[nH]n3c(=O)cc(C)[nH]c23)c1 | > 42 µM (inactive)

Row | Compound | AC50
49 | Cc1nnc(NC(=O)c2cccc(S(=O)(=O)N3CCCC3)c2)s1 | > 42 µM (inactive)
50 | COC(=O)c1cn(C(=O)c2cccc3ccccc23)c2ccccc12 | > 42 µM (inactive)
51 | CCOc1ccc(S(=O)(=O)N2CCN(C(=O)CN3C(=O)NC4(CCCC4)C3=O)CC2)cc1 | > 42 µM (inactive)
52 | COc1cc(/C=C(\NC(=O)c2ccccc2)C(=O)Nc2nccs2)ccc1OC(C)=O | > 42 µM (inactive)
53 | CS(=O)(=O)N1CCC(Oc2ccccc2C(=O)N2CCNC(=O)C2)CC1 | > 42 µM (inactive)
54 | CCN(C(=S)NCCOC)c1cccc2ccccc12 | > 42 µM (inactive)
55 | O=C(N1CCOCC1)C1(S(=O)(=O)c2ccccc2)CC=CC1 | > 42 µM (inactive)
56 | O=C(CN1c2ccccc2Sc2ccccc21)N/N=C/c1ccc(Cl)cc1Cl | > 21 µM (inactive)
57 | CCNCCNC(=O)c1c(O)c2c([nH]c1=O)CCCC2 | > 42 µM (inactive)
58 | Cc1cc(C(=O)COc2cccc3cccnc23)c(C)n1C | > 42 µM (inactive)
59 | CC(C)CCn1c(C(C)O)nc2ccccc21 (stereo not given) | > 42 µM (inactive)
60 | FC(F)(F)c1nnc(-c2ccccc2)nc1Oc1ccc(Cl)cc1Cl | > 42 µM (inactive)
61 | COC(=O)C1C2C=CC3(CN(CCc4ccccc4)C(=O)C13)O2 (stereo not given) | > 21 µM (inactive)
62 | CCCNCc1cc(OCC)c(OCC(N)=O)cc1Br | > 42 µM (inactive)
63 | COc1ccccc1-c1nnc(SCC(=O)NC2CCS(=O)(=O)C2)n1N (stereo not given) | > 42 µM (inactive)
64 | O=C(C1CCN(C2CC(=O)N(c3cccc(Cl)c3)C2=O)CC1)N1CCCC1 (stereo not given) | 7.84 µM
65 | COc1ccccc1NS(=O)(=O)c1cc(Cl)ccc1OC | > 42 µM (inactive)
66 | O=C(/C=C/NNC(=O)c1ccc(Br)cc1)c1ccccc1 | > 42 µM (inactive)
67 | Cc1ccc(C(C(=O)Nc2ccc3c(c2)OCO3)N(C)C(=O)/C=C\c2ccc3c(c2)OCO3)cc1 (stereo not given) | > 42 µM (inactive)
68 | CCc1cccc(C)c1NC(=O)CSc1nnc(-c2cc3cc(Br)ccc3o2)n1CC | > 42 µM (inactive)
69 | CCc1ccc2[nH]c(=O)c(C(c3nnnn3Cc3ccccc3)N3CCOCC3)cc2c1 (stereo not given) | > 42 µM (inactive)
70 | CC(C)(C)n1cnc2cc(NC(=O)c3ccc(Cl)cc3)ccc21 | > 42 µM (inactive)
